Measured values published in PMC6211257, “Synthesis and cytotoxic activities of novel copper and silver complexes of 1,3-diaryltriazene-substituted sulfonamides” (Journal of Enzyme Inhibition and Medicinal Chemistry, 2018).
Values joined by “and” are separate entries in the source; they are usually repeats but may differ in a detail not shown here. Equal values may be shown once.

The molecules below were run on normal prostate epithelium (PNT-1A) cells (assay: MTT cytotoxicity assay, PNT-1A). Conditions: normal cell, 48 h, means of three independent experiments, read-out: IC50 PNT-1A.
Type: cell-based, human
Excerpt: (§1) The cells studied were obtained from the American Type Culture Collection (ATCC, Manassas, VA), and included human colorectal adenocarcinoma (DLD-1), cervix carcinoma (HeLa), breast adenocarcinoma (MDA-MB-231), colon adenocarcinoma (HT-29), endometrial adenocarcinoma (ECC-1), prostate cancer (DU-145 and PC-3), normal embryonic kidney (HEK-293), normal prostate epithelium (PNT-1A), and normal retinal pigment epithelium (ARPE-19) cells. As recommended by ATCC, cells were subjected to propagation using DMEM-F12 and RPMI-1640 media, with supplements 10% fetal bovine serum, L-glutamine (2 mM), penicillin (100 U/mL) and streptomycin ([…]) in a humidified atmosphere (5% CO2) at 37 °C. When the cultures reached 70–80% confluence, the cells were harvested using 0.25% trypsin (Sigma).
(§2) Cytotoxic activities were based on the reduction of (3–(4,5-dimethylthiazol-2-yl)-2,5-diphenyltetrazolium bromide) (MTT) by mitochondrial dehydrogenase of viable cells to give a blue formazan product which can be measured spectrophotometrically by UV–Vis measurements. MTT colorimetric assays were performed using 96 well plates. The cells were seeded in a 96 well plate at concentration 5.0 × 10^4 cells/well and incubated at 37 °C for 24 h. After treatment with various concentrations of the test compound (1, 5, 10, 25, 50, 100 and 200 μM), the cells were incubated for an additional 48 h at 37 °C. After incubation, the medium was removed, and the cells in each well were incubated with 100 μL MTT solution (5 mg/mL) for 4 h at 37 °C. MTT solutions were then discarded, and 100 μL DMSO were added to dissolve insoluble formazan crystals. Optical densities were measured at 570 nm (Varioskan Flash Multimode Reader, Thermo, Waltham, MA). Data were obtained from triplicate wells. Cytotoxic effects were determined in reference to negative controls (vehicle treated cells). Cytotoxicity was expressed as the mean percentage increase relative to the unexposed control (mean ± SD). All statistical analyses were performed using SPSS package program for Windows (Version 20, Chicago, IL). Control values were set to 0% cytotoxicity. Cytotoxicity data, where appropriate, were fitted to sigmoidal curves and a four-parameter logistic model was used to calculate the IC50 values, the concentration of material causing 50% inhibition, compared to the untreated controls. 5-Fluorouracil (5-FU) was also used as a control agent[21]^,[22].
Work on `CC(=O)[O][Ag][N](N=Nc1ccc(F)cc1)c1cccc(S(N)(=O)=O)c1` [Compound L1-Ag] yielded an IC50 of 210 ± 20.9 µM.
`COc1ccc([N+]2=N[N](c3cccc(S(N)(=O)=O)c3)[Cu-]2([O]C(C)=O)[O]C(C)=O)cc1` [Compound L2-Cu] showed an IC50 of 95.1 ± 11.1 µM.
For `CC(=O)[O][Cu-]1([O]C(C)=O)[N](c2cccc(S(N)(=O)=O)c2)N=[N+]1c1ccc(C(=O)O)cc1` [Compound L3-Cu], the IC50 was 120 ± 13.5 µM.
In the case of `COc1ccc(N=N[N]([Ag][O]C(C)=O)c2cccc(S(N)(=O)=O)c2)cc1` [Compound L2-Ag], the IC50 is reported as 17.5 ± 17.5 µM.

The molecules below were run on colon adenocarcinoma (HT-29) cells (assay: MTT cytotoxicity assay, HT-29). Conditions: cancer cell, 48 h, means of three independent experiments.
Type: cell-based, human
Excerpt: as §1, §2
For `CC(=O)[O][Ag][N](N=Nc1ccc(F)cc1)c1cccc(S(N)(=O)=O)c1` [Compound L1-Ag], the IC50 was 186 ± 16.5 µM.
Work on `COc1ccc([N+]2=N[N](c3cccc(S(N)(=O)=O)c3)[Cu-]2([O]C(C)=O)[O]C(C)=O)cc1` [Compound L2-Cu] yielded an IC50 of 94.9 ± 9.4 µM.
`CC(=O)[O][Cu-]1([O]C(C)=O)[N](c2cccc(S(N)(=O)=O)c2)N=[N+]1c1ccc(C(=O)O)cc1` [Compound L3-Cu] was tested, and the IC50 was 205 ± 20.3 µM.
`COc1ccc(N=N[N]([Ag][O]C(C)=O)c2cccc(S(N)(=O)=O)c2)cc1` [Compound L2-Ag] gave an IC50 of 24.9 ± 2.5 µM.

Each molecule was assayed on prostate cancer (DU-145) cells (assay: MTT cytotoxicity assay, DU-145). Conditions: cancer cell, MTT, 48 h, means of three independent experiments; read-out: IC50 DU-145.
Type: cell-based, human
Excerpt: as §1, §2
Work on `CC(=O)[O][Ag][N](N=Nc1ccc(F)cc1)c1cccc(S(N)(=O)=O)c1` [Compound L1-Ag] yielded an IC50 of 137 ± 16.5 µM.
Work on `COc1ccc([N+]2=N[N](c3cccc(S(N)(=O)=O)c3)[Cu-]2([O]C(C)=O)[O]C(C)=O)cc1` [Compound L2-Cu] yielded an IC50 of 116 ± 14.6 µM.
`CC(=O)[O][Cu-]1([O]C(C)=O)[N](c2cccc(S(N)(=O)=O)c2)N=[N+]1c1ccc(C(=O)O)cc1` [Compound L3-Cu] showed an IC50 of 58.3 ± 6.4 µM.
With `COc1ccc(N=N[N]([Ag][O]C(C)=O)c2cccc(S(N)(=O)=O)c2)cc1` [Compound L2-Ag] the IC50 was 18.6 µM.

These molecules were tested on endometrial adenocarcinoma (ECC-1) cells (assay: MTT cytotoxicity assay, ECC-1). Conditions: cancer cell, 48 h, means of three independent experiments.
Type: cell-based, human
Excerpt: as §1, §2
`CC(=O)[O][Ag][N](N=Nc1ccc(F)cc1)c1cccc(S(N)(=O)=O)c1` [Compound L1-Ag] was tested, and the IC50 was 207 ± 25.6 µM.
`COc1ccc([N+]2=N[N](c3cccc(S(N)(=O)=O)c3)[Cu-]2([O]C(C)=O)[O]C(C)=O)cc1` [Compound L2-Cu] was tested, and the IC50 was 39.5 ± 2.5 µM.
Molecule `CC(=O)[O][Cu-]1([O]C(C)=O)[N](c2cccc(S(N)(=O)=O)c2)N=[N+]1c1ccc(C(=O)O)cc1` [Compound L3-Cu] has an IC50 of 362 ± 38.1 µM.
With `COc1ccc(N=N[N]([Ag][O]C(C)=O)c2cccc(S(N)(=O)=O)c2)cc1` [Compound L2-Ag] the IC50 was 29.1 µM.

The molecules below were run on human colorectal adenocarcinoma (DLD-1) cells (assay: MTT cytotoxicity assay, DLD-1). Conditions: cancer cell, 48 h, means of three independent experiments.
Type: cell-based
Excerpt: as §1, §2
`CC(=O)[O][Ag][N](N=Nc1ccc(F)cc1)c1cccc(S(N)(=O)=O)c1` [Compound L1-Ag] gave an IC50 of 279 ± 12.9 µM.
Work on `COc1ccc([N+]2=N[N](c3cccc(S(N)(=O)=O)c3)[Cu-]2([O]C(C)=O)[O]C(C)=O)cc1` [Compound L2-Cu] yielded an IC50 of 42.7 ± 3.3 µM.
In the case of `CC(=O)[O][Cu-]1([O]C(C)=O)[N](c2cccc(S(N)(=O)=O)c2)N=[N+]1c1ccc(C(=O)O)cc1` [Compound L3-Cu], the IC50 is reported as 65.2 ± 2.5 µM.
`COc1ccc(N=N[N]([Ag][O]C(C)=O)c2cccc(S(N)(=O)=O)c2)cc1` [Compound L2-Ag] was tested, and the IC50 was 31.6 µM.

The molecules below were run on prostate cancer (PC-3) cells (assay: MTT cytotoxicity assay, PC-3). Conditions: cancer cell, 48 h, means of three independent experiments.
Type: cell-based, human
Excerpt: as §1, §2
`COc1ccc([N+]2=N[N](c3cccc(S(N)(=O)=O)c3)[Cu-]2([O]C(C)=O)[O]C(C)=O)cc1` [Compound L2-Cu] showed an IC50 of 65.3 ± 8.5 µM.
Molecule `CC(=O)[O][Cu-]1([O]C(C)=O)[N](c2cccc(S(N)(=O)=O)c2)N=[N+]1c1ccc(C(=O)O)cc1` [Compound L3-Cu] has an IC50 of 196 ± 22.6 µM.
With `COc1ccc(N=N[N]([Ag][O]C(C)=O)c2cccc(S(N)(=O)=O)c2)cc1` [Compound L2-Ag] the IC50 was 28.2 µM.

The molecules below were run on normal embryonic kidney (HEK-293) cells (assay: MTT cytotoxicity assay, HEK-293). Conditions: normal cell, 48 h, means of three independent experiments.
Type: cell-based, human
Excerpt: as §1, §2
Work on `CC(=O)[O][Ag][N](N=Nc1ccc(F)cc1)c1cccc(S(N)(=O)=O)c1` [Compound L1-Ag] yielded an IC50 of over 300 µM.
Molecule `COc1ccc([N+]2=N[N](c3cccc(S(N)(=O)=O)c3)[Cu-]2([O]C(C)=O)[O]C(C)=O)cc1` [Compound L2-Cu] has an IC50 of 159 ± 19.4 µM.
In the case of `CC(=O)[O][Cu-]1([O]C(C)=O)[N](c2cccc(S(N)(=O)=O)c2)N=[N+]1c1ccc(C(=O)O)cc1` [Compound L3-Cu], the IC50 is reported as 135 ± 15.6 µM.
With `COc1ccc(N=N[N]([Ag][O]C(C)=O)c2cccc(S(N)(=O)=O)c2)cc1` [Compound L2-Ag] the IC50 was 17.8 ± 1.7 µM.

The molecules below were run on cervix carcinoma (HeLa) cells (assay: MTT cytotoxicity assay, HeLa). Conditions: HeLa cells, ratio of IC50 values.
Type: cell-based, human
Excerpt: as §1, §2
With `COc1ccc(N=N[N]([Ag][O]C(C)=O)c2cccc(S(N)(=O)=O)c2)cc1` [Compound L2-Ag] the “fold increased potency than the reference drug 5-FU” value was 6.84 fold.

Same assay, conditions: cancer cell, MTT, 48 h, means of three independent experiments
`CC(=O)[O][Ag][N](N=Nc1ccc(F)cc1)c1cccc(S(N)(=O)=O)c1` [Compound L1-Ag] was tested, and the IC50 was over 300 µM.
With `COc1ccc([N+]2=N[N](c3cccc(S(N)(=O)=O)c3)[Cu-]2([O]C(C)=O)[O]C(C)=O)cc1` [Compound L2-Cu] the IC50 was 2.08 µM and 2.1 µM.
`CC(=O)[O][Cu-]1([O]C(C)=O)[N](c2cccc(S(N)(=O)=O)c2)N=[N+]1c1ccc(C(=O)O)cc1` [Compound L3-Cu] was tested, and the IC50 was 63.9 ± 4.3 µM.
`COc1ccc(N=N[N]([Ag][O]C(C)=O)c2cccc(S(N)(=O)=O)c2)cc1` [Compound L2-Ag] showed an IC50 of 2.8 ± 0.1 µM.

What follows are molecules tested on breast adenocarcinoma (MDA-MB-231) cells (assay: MTT cytotoxicity assay, MDA-MB-231). Conditions: cancer cell, 48 h, means of three independent experiments.
Type: cell-based, human
Excerpt: as §1, §2
`CC(=O)[O][Ag][N](N=Nc1ccc(F)cc1)c1cccc(S(N)(=O)=O)c1` [Compound L1-Ag] showed an IC50 of 96.8 ± 9.6 µM.
`COc1ccc([N+]2=N[N](c3cccc(S(N)(=O)=O)c3)[Cu-]2([O]C(C)=O)[O]C(C)=O)cc1` [Compound L2-Cu] showed an IC50 of 50 ± 2.4 µM.
`CC(=O)[O][Cu-]1([O]C(C)=O)[N](c2cccc(S(N)(=O)=O)c2)N=[N+]1c1ccc(C(=O)O)cc1` [Compound L3-Cu] showed an IC50 of 48.3 ± 2.5 µM.
Work on `COc1ccc(N=N[N]([Ag][O]C(C)=O)c2cccc(S(N)(=O)=O)c2)cc1` [Compound L2-Ag] yielded an IC50 of 30.3 ± 3 µM.

What follows are molecules tested on normal retinal pigment epithelium (ARPE-19) cells (assay: MTT cytotoxicity assay, ARPE-19). Conditions: normal cell, 48 h, means of three independent experiments.
Type: cell-based, human
Excerpt: as §1, §2
Work on `CC(=O)[O][Ag][N](N=Nc1ccc(F)cc1)c1cccc(S(N)(=O)=O)c1` [Compound L1-Ag] yielded an IC50 of over 300 µM.
Molecule `COc1ccc([N+]2=N[N](c3cccc(S(N)(=O)=O)c3)[Cu-]2([O]C(C)=O)[O]C(C)=O)cc1` [Compound L2-Cu] has an IC50 of 132 ± 15.6 µM.
With `CC(=O)[O][Cu-]1([O]C(C)=O)[N](c2cccc(S(N)(=O)=O)c2)N=[N+]1c1ccc(C(=O)O)cc1` [Compound L3-Cu] the IC50 was over 300 µM.
`COc1ccc(N=N[N]([Ag][O]C(C)=O)c2cccc(S(N)(=O)=O)c2)cc1` [Compound L2-Ag] showed an IC50 of 22 ± 10.2 µM.
